Reference: patent US12208140B2, “Targeted delivery to beta cells” (THE BROAD INSTITUTE, INC., priority 2017, dated 2025)
“Also recorded” adds a separate entry of the source. Like-named read-outs stand apart in the source and are kept apart here.

Assays:
[1] = system: human β-cells; test: human islet cell-culture EdU proliferation assay; format: cell-based
Source text: A human islet cell-culture system and proliferation assay developed by Wagner et al. was used to not only of preserve β-cell function over 7-10 days in culture, but also identify conditions that increase β-cell division.[32] The thymidine analog 5-ethinyl-2′-deoxyuridine (EdU) was used, which, when reacted with an azide-conjugated fluorophore, enables rapid and high-quality imaging of cells that have ever gone through S phase.[34] The detection was paired with insulin immunofluorescence, followed by automated imaging and analysis to identify EdU+ins+ cells after compound treatment. Islet cells were incubated with EdU for 6 days, consistent with the low rate of human β-cell proliferation. […] The quality of the assay was verified by using as a positive control adenoviral overexpression of human CDK6 and cyclin D1.[35]
[38] […] This effect was consistent across >20 human islet donors, irrespective of age, gender, BMI, or cause of death.

[2] = system: INS-1E; test: reaction-based probe (DA-ZP1) fluorescence in a β-cell line; settings: compared to other cell types
Description: (§1) All the imaging experiments were performed in 96 well plate. INS-1E, PANC1, αTC1.6, HEK293T and other cell types were plated in 96 well plate. 70 μL, 4×PFA was added in each well to fix the cells. After 15 minutes, all the wells were washed with PBS. After washing with PBS, 70 μL DAPI (1×) (nuclear stain) was added along with appropriate concentration of DAZP-1. The staining process was continued for 20 minute and 100 μL PBS as was added in each well.

[3] = system: aTC1.6, PANC1, HEK293T and cells of other lineages; test: reaction-based probe (DA-ZP1) fluorescence in non-β cell types
Description: as §1

[4] = system: β-cells and alpha cells of dissociated rat or human islets; test: probe incubation in dissociated islets, co-staining for insulin and glucagon; format: cell-based
Description: (§2) Next, this probe was incubated in dissociated rat or human islets, co-staining for insulin to identify β-cells and glucagon to identify alpha cells. […] Using confocal microscopy, distinct green-fluorescent vesicles were observed within β-cells (FIG. 3D), showing the high degree of resolution for the localization of this probe. Finally, 10-12-week old C57BL/6 mice were injected intraperitoneally with a single dose of 50 mg/kg DA-ZP1 or DMSO.

[5] = system: islets; test: islet fluorescence after intraperitoneal injection of DA-ZP1; format: in vivo; settings: single dose 50 mg/kg intraperitoneally, 10-12-week old C57BL/6 mice
Description: as §2

[6] = system: human β-cells; test: human islet grafts in NSG mice, β-cell replication; format: in vivo, human islets transplanted in NSG mice
Source text: 1) Establishing a humanized mouse model: The humanized mouse model is established according to Kulkarni et al.[22,23] Briefly, the immunodeficient NOD.Cg-Prkdc^scidIl2rg^tm1Wj1SzJ mouse strain, commonly known as NOD-scid gamma (NSG), combines features of the NOD/ShiLtJ background and […], known as the severe combined immune deficiency mutation (scid), which essentially eliminates adaptive immunity. This strain has utility in studies of hematopoietic and cancer stem cells and of islet transplantation.
A separate group of mice with human islet transplants were injected with DMSO as vehicle controls, and sham-operated animals were used as an additional control group. The injection was repeated twice a week for 3 weeks. In the final week, we injected BrdU (100 mg/kg) daily for 4 days, and six hours after the last BrdU injection the pancreas was harvested. β-cell replication was assessed using previously described protocols.[23] For sivelestat experiments, osmotic pumps loaded with compound (300 μg/kg/day) were implanted into mice, and were treated for 14 days. Mice were provided BrdU in drinking water and injected i.p. on days 8, 11, and 14. Islets were harvested five hours after the last BrdU injection.

[7] = system: mouse islets (β-cells); test: sivelestat treatment of mouse islets, β-cell proliferation; settings: in vivo
Description: (§3) Next, sivelestat, a small-molecule inhibitor of elastinolytic proteases and thus a partial mimic of serpinB1 activity, was tested for β-cell proliferation. […] Thus, small molecules promote β-cell proliferation in human islets transplanted in vivo by targeting two independent pathways.

[8] = system: liver, skeletal muscle, visceral and subcutaneous adipose tissue, spleen, or kidney; format: in vivo, mouse; settings: data not shown
Description: as §3

[9] = system: human β-cells; test: glucose-stimulated insulin secretion (GSIS) in dissociated islet cells; format: cell-based; settings: cells treated for 12 days
Source text: In the DMSO-treated state, glucose stimulated ˜2-fold increase in insulin secretion in dissociated islet cells. […] Although incompletely understood, the loss of basal secretion may be due to cell-death effects on other cells in the culture system.

[10] = biological target: DYRK1B (Homo sapiens, UniProt Q9Y463); test: kinase activity profiling, DYRK1B; format: biochemical
[11] = biological target: T1, DYRK2 (Homo sapiens, UniProt Q92630); test: kinase activity profiling, DYRK2; format: biochemical
T1 sequence (Q92630 1-601): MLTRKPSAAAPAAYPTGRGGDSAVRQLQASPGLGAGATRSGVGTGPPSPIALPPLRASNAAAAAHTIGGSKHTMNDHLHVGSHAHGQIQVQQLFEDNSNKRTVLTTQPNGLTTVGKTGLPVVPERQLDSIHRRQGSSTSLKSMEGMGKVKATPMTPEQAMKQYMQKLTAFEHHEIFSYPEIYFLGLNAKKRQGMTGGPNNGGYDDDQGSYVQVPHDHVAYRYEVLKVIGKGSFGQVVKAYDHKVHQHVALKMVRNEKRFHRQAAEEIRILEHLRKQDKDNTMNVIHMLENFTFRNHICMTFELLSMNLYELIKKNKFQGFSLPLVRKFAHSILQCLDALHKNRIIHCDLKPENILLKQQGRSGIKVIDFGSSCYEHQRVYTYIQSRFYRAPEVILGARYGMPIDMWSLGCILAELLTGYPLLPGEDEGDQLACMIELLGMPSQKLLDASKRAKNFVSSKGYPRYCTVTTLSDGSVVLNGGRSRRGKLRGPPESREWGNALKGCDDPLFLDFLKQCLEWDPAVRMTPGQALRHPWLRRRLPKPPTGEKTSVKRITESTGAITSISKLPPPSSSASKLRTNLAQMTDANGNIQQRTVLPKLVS

[12] = biological target: CLK1 (Homo sapiens, UniProt P49759); test: kinase activity profiling, CLK1; format: biochemical
[13] = biological target: CLK2 (Homo sapiens, UniProt P49760); test: kinase activity profiling, CLK2; format: biochemical
[14] = biological target: CLK4 (Homo sapiens, UniProt Q9HAZ1); test: kinase activity profiling, CLK4; format: biochemical
[15] = system: liver, adipose, muscle, and kidney tissue; test: proliferation of other tissues in 5-IT-treated mice; format: in vivo; settings: 0.625 mg/kg i.p. twice a week for 3 weeks
[16] = system: mouse islets (β-cells); test: mouse islet culture, Ki67 proliferation; format: cell-based
Source text: (§4) Liver was found as the source of a secreted factor in this model that can induce β-cell proliferation in mouse and human islets.[24] A proteomics effort using liver, liver explant-conditioned media, hepatocyte-conditioned media, and plasma led to the discovery that serpin B1, a protease inhibitor that targets elastases, is enriched in serum from LIRKO mice (FIG. 10).[1]

[17] = system: human islets (β-cells); test: human islet β-cell proliferation with rSerpinB1; format: cell-based
Source text: as §4

[18] = human islet cells, 6 days of treatment
[19] = 0.625 mg/kg i.p. twice a week for 3 weeks

CLK2, sequence (P49760 whole entry): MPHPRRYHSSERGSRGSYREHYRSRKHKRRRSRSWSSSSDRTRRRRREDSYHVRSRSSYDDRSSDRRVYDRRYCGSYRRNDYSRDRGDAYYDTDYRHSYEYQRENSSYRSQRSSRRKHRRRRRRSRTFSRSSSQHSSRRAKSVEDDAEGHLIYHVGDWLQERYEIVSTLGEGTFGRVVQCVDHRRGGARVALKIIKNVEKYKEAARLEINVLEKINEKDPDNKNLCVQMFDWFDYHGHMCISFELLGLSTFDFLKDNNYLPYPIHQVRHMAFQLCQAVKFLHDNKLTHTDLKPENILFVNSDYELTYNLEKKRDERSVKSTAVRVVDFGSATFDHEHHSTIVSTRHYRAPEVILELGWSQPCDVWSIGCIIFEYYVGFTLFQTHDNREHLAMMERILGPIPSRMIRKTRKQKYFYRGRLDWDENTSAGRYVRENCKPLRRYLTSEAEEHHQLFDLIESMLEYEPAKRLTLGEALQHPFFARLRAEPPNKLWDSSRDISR
CLK4, sequence (Q9HAZ1 whole entry): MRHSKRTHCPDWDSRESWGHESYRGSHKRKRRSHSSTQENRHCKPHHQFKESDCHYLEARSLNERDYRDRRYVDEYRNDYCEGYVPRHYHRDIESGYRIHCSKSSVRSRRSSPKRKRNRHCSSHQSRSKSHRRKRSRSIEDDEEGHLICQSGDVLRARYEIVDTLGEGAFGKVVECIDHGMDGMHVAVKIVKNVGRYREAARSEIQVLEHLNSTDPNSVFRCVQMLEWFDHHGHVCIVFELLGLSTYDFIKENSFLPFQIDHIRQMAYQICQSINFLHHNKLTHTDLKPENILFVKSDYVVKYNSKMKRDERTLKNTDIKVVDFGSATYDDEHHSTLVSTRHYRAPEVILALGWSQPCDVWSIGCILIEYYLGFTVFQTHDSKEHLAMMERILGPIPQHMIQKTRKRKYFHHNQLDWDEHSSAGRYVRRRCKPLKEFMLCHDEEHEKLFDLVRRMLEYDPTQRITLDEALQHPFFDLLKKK
DYRK1B, sequence (Q9Y463 whole entry): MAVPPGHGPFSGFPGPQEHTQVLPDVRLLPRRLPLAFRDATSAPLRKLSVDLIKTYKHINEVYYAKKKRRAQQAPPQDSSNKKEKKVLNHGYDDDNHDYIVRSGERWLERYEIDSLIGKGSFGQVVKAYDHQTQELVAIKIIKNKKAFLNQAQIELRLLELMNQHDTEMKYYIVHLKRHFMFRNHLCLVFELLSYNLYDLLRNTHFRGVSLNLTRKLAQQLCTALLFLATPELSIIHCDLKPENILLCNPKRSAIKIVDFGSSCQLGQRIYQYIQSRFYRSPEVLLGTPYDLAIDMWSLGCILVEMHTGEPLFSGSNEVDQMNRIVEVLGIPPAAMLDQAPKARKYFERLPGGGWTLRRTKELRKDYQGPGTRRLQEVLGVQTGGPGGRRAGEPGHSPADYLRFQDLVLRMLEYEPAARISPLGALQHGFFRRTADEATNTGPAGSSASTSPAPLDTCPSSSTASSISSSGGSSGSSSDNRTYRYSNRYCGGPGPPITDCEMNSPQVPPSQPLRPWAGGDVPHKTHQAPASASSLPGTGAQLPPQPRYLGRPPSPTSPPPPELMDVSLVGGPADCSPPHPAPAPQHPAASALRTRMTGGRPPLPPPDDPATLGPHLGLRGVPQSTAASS
CLK1, sequence (P49759 whole entry): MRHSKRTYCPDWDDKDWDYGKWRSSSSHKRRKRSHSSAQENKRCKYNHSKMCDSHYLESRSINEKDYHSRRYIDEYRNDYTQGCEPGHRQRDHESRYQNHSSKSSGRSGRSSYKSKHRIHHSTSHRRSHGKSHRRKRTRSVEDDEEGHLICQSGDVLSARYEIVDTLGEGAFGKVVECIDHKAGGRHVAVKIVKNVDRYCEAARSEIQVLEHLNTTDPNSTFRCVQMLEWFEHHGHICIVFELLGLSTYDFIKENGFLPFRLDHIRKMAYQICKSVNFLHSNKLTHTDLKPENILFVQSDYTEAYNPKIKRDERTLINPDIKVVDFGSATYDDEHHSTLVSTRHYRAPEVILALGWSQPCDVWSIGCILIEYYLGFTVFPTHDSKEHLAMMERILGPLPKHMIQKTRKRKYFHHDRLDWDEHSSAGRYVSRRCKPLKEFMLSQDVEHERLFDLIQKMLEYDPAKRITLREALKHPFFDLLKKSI

Nc1ncnc2nc(-c3ccc(N4CCOCC4)nc3)cc(-c3cccc(Br)c3)c12 [ABT-702, 4-amino-5-(3-bromophenyl)-7-(6-morpholinopyridin-3-yl)pyrido[2,3-d]pyrimidine]
effect on EdU incorporation / β-cell proliferation ([1]; human islet cells): does not; also recorded: no effect

CC(=O)Oc1c(Cl)cc2c(c1CN(Cc1ccccn1)Cc1ccccn1)Oc1c(cc(Cl)c(OC(C)=O)c1CN(Cc1ccccn1)Cc1ccccn1)C21OC(=O)c2ccccc21 [DA-ZP1]
fluorescence in β-cells (INS-1E) [2]: high average fluorescent cell intensity and high % fluorescence-positive cells
fluorescence in β-cells (INS-1E) ([2]; listed as reaction-based probe): highly fluorescent
fluorescence / labeling in other cell types [3]: do not observe non-specific labeling
fluorescence / labeling in other cell types ([3]; listed as reaction-based probe): minimal background fluorescence
overlap between glucagon-positive and zinc probe-positive cells [4]: very little to no overlap
overlap between insulin-positive and zinc probe-positive cells [4]: high degree of overlap
fluorescence in islet sections [5]: Fluorescence was detected

CC(C)(C)C(=O)Oc1ccc(S(=O)(=O)Nc2ccccc2C(=O)NCC(=O)O)cc1 [sivelestat]
proliferation of human β-cells (islet grafts) ([6]; osmotic pumps 300 μg/kg/day, 14 days): increased proliferation
β-cell proliferation in mouse islets [7]: increased β-cell proliferation
effect on liver, skeletal muscle, visceral and subcutaneous adipose tissue, spleen, or kidney [8]: without a significant effect

COc1ccc2c(c1)[nH]c1c(C)nccc12 [harmine]
EdU+ins+ cells ([1]; 5 and 10 μM, 6-days treatment, human islet cells): dose-dependent increase
effect on EdU incorporation / β-cell proliferation ([1]; human islet cells): promotes β-cell proliferation in a dose-dependent manner

Nc1ncnc2c1c(I)cn2[C@@H]1O[C@H](CO)[C@@H](O)[C@H]1O [5-IT, 5-iodotubercidin]
concentrations toxic to cells ([1]; human islet cells): greater than 1 μM
effect on EdU incorporation / β-cell proliferation ([1]; human islet cells): promotes
concentration of maximal effect on proliferation [1, 18]: 1 µM
increase in proliferation (EdU incorporation) [1, 18]: ~10 fold
proliferation of the other cell types in the heterogeneous culture system ([1]; non-β cells of human islet culture): did not induce proliferation
baseline secretion under low-glucose conditions [9]: decreased somewhat in a dose-dependent manner
glucose-stimulated insulin secretion (GSIS) [9]: an increase in GSIS was observed
IC50 [10]: 0.01 µM
IC50 [11]: 0.006 µM
IC50 [12]: 0.036 µM
IC50 [13]: 0.01 µM
IC50 [14]: 0.014 µM
increase in BrdU incorporation in human islet grafts [6, 19]: ~5 fold
mitosis by Ki67 and pHH3 immunostaining in human islet grafts [6, 19]: enhanced mitosis was confirmed
proliferation of liver, adipose, muscle, and kidney tissue, control vs treated mice [15]: No significant differences

B1: rSerpinB1: recombinant human serpinB1, a protease inhibitor that targets elastases (protein, UniProt P30740 1-379, looked up)
Leukocyte elastase inhibitor: MEQLSSANTRFALDLFLALSENNPAGNIFISPFSISSAMAMVFLGTRGNTAAQLSKTFHFNTVEEVHSRFQSLNADINKRGASYILKLANRLYGEKTYNFLPEFLVSTQKTYGADLASVDFQHASEDARKTINQWVKGQTEGKIPELLASGMVDNMTKLVLVNAIYFKGNWKDKFMKEATTNAPFRLNKKDRKTVKMMYQKKKFAYGYIEDLKCRVLELPYQGEELSMVILLPDDIEDESTGLKKIEEQLTLEKLHEWTKPENLDFIEVNVSLPRFKLEESYTLNSDLARLGVQDLFNSSKADLSGMSGARDIFISKIVHKSFVEVNEEGTEAAAATAGIATFCMLMPEENFTADHPFLFFIRHNSSGSILFLGRFSSP
effect on Ki67+ insulin+ cells [16]: dose-dependent effect
increase in the percentage of Ki67+ins+ cells ([16]; dose of 1 μg/mL): 2 fold
effect on Ki67+ insulin+ cells ([16]; listed as serpinB1): dose-dependent effect
effect on Ki67+ insulin+ cells ([16]; listed as untagged SerpinB1): promotes
β-cell proliferation from human islets [17]: dose-dependent increase

B2: inactive N-tagged serpin B1 construct: inactive N-tagged serpin B1 construct from GeneCopoeia (protein, UniProt P30740 1-379, looked up)
Leukocyte elastase inhibitor: B1 Leukocyte elastase inhibitor
modifications: N-terminal tag; inactive
effect on Ki67+ insulin+ cells [16]: no impact
